Data taken from patent publication US11535594B2, “Microbiocidal picolinamide derivatives” (Syngenta Participations AG, priority 2017, dated 2022).

Legend:
[1] = system: Mycosphaerella Graminicola (Septoria tritici); experiment: Mycosphaerella graminicola (Septoria tritici) / liquid culture (Septoria blotch); assay type: cell-based; conditions: Zymoseptoria tritici, PDB potato dextrose broth, 24° C., 4 to 5 days after application, compared to untreated checks, read-out: disease control (inhibition of growth, photometric)
Description: (§1) Mycosphaerella Graminicola (Septoria tritici)/Liquid Culture (Septoria Blotch) Conidia of the fungus from cryogenic storage are directly mixed into nutrient broth (PDB potato dextrose broth). After placing a (DMSO) solution of test compound into a microtiter plate (96-well format), the nutrient broth containing the fungal spores is added. The test plates are incubated at 24° C. and the inhibition of growth is determined photometrically 4 to 5 days after application.

[2] = system: Monographella nivalis (Microdochium nivale); experiment: Monographella nivalis (Microdochium nivale) / liquid culture (foot rot cereals); assay type: cell-based; conditions: PDB potato dextrose broth, 24° C., 4-5 days after application, compared to untreated checks, read-out: disease control (inhibition of growth, photometric)
Description: as §1, with “Monographella nivalis (Microdochium nivale)/Liquid” for “Mycosphaerella Graminicola (Septoria tritici)/Liquid”, “(Foot Rot Cereals)” for “(Septoria Blotch)”, “4-5” for “4 to 5”

[3] = system: Puccinia Recondite f. Sp. Tritici; experiment: Puccinia recondita f. sp. tritici / wheat / leaf disc preventative (brown rust); assay type: in vivo; conditions: foliar, wheat leaf segments cv. Kanzler, inoculated 1 day after application, assessed 7-9 days after application, compared to untreated, read-out: disease control
Description: Puccinia Recondite f. Sp. Tritici/Wheat/Leaf Disc Preventative (Brown Rust) Wheat leaf segments cv. Kanzler are placed on agar in multiwell plates (24-well format) and sprayed with the formulated test compound diluted in water. The leaf disks are inoculated with a spore suspension of the fungus 1 day after application. The inoculated leaf segments are incubated at 19° C. and 75% rh under a light regime of 12 h light/12 h darkness in a climate cabinet and the activity of a compound is assessed as percent disease control compared to untreated when an appropriate level of disease damage appears in untreated check leaf segments (7-9 days after application).

[4] = system: Mycosphaerella arachidis (Cercospora arachidicola); experiment: Mycosphaerella arachidis (Cercospora arachidicola) / liquid culture (early leaf spot); assay type: cell-based; conditions: PDB potato dextrose broth, 24° C., 4-5 days after application, compared to untreated checks, read-out: disease control (inhibition of growth, photometric)
Description: as §1, with “arachidis (Cercospora arachidicola)/Liquid” for “Graminicola (Septoria tritici)/Liquid”, “(Early Leaf Spot)” for “(Septoria Blotch)”, “4-5” for “4 to 5”

[5] = system: Phaeosphaeria nodorum (Septoria nodorum); experiment: Phaeosphaeria nodorum (Septoria nodorum) / wheat / leaf disc preventative (glume blotch); assay type: in vivo; conditions: Parastagonospora nodorum, foliar, 120 h, wheat leaf segments cv. Kanzler, inoculated 2 days after application, assessed 5-7 days after application, compared to untreated, read-out: disease control
Description: Phaeosphaeria nodorum (Septoria nodorum)/Wheat/Leaf Disc Preventative (Glume Blotch) Wheat leaf segments cv. Kanzler are placed on agar in a multiwell plate (24-well format) and sprayed with the formulated test compound diluted in water. The leaf disks are inoculated with a spore suspension of the fungus 2 days after application. The inoculated test leaf disks are incubated at 20° C. and 75% rh under a light regime of 12 h light/12 h darkness in a climate cabinet and the activity of a compound is assessed as percent disease control compared to untreated when an appropriate level of disease damage appears in untreated check leaf disks (5-7 days after application).

[6] = system: Glomerella Lagenarium (Colletotrichum lagenarium); experiment: Glomerella lagenarium (Colletotrichum lagenarium) / liquid culture (anthracnose); assay type: cell-based; conditions: Colletotrichum orbiculare, PDB potato dextrose broth, 24° C., 3 to 4 days after application, compared to untreated checks, read-out: disease control (inhibition of growth, photometric)
Description: as §1, with “Glomerella Lagenarium (Colletotrichum lagenarium)/Liquid” for “Mycosphaerella Graminicola (Septoria tritici)/Liquid”, “(Anthracnose)” for “(Septoria Blotch)”, “measured” for “determined”, “photometrically 3 to” for “photometrically”, “4” for “4 to 5”

[7] = system: Magnaporthe grisea (Pyricularia oryzae); experiment: whole plant or invertebrate; assay type: in vivo; conditions: foliar, read-out: disease control

COc1ccnc(C(=O)N[C@@H](C)C(=O)ON(C)C(c2ccc(C(C)(C)C)cc2)c2ccc(C(C)(C)C)cc2)c1O [I.aa.01, [bis(4-tert-butylphenyl)methyl-methyl-amino] (2S)-2-[(3-hydroxy-4-methoxy-pyridine-2-carbonyl)amino]propanoate]
≥ 80%: inhibition at 200 ppm [1] | inhibition at 200 ppm [2]

COc1ccnc(C(=O)N[C@@H](C)C(=O)ON(C)C(c2ccccc2)C(C)C)c1O (stereo partly drawn) [I.d.01, [methyl-(2-methyl-1-phenyl-propyl)amino] (2S)-2-[(3-hydroxy-4-methoxy-pyridine-2-carbonyl)amino] propanoate]
≥ 80%: pest or weed control at 200 ppm [3] | inhibition at 200 ppm [1] | inhibition at 200 ppm [4]

COc1ccnc(C(=O)N[C@@H](C)C(=O)ON(C)C(c2ccccc2)C2CC2)c1O (stereo partly drawn) [I.e.01, [[cyclopropyl(phenyl)methyl]-methyl-amino] (2S)-2-[(3-hydroxy-4-methoxy-pyridine-2-carbonyl)amino] propanoate]
≥ 80%: inhibition at 200 ppm [1] | pest or weed control at 200 ppm [5]

COc1ccnc(C(=O)N[C@@H](C)C(=O)ON(C)C(c2ccc3ccccc3c2)C2CC2)c1O (stereo partly drawn) [I.g.01, [[cyclopropyl(2-naphthyl)methyl]-methyl-amino] (2S)-2-[(3-hydroxy-4-methoxy-pyridine-2-carbonyl)amino] propanoate]
≥ 80%: pest or weed control at 200 ppm [5]

COc1ccnc(C(=O)N[C@@H](C)C(=O)ON(C)C(c2ccccc2)C2CCCC2)c1O (stereo partly drawn) [I.h.01, [[cyclopentyl(phenyl)methyl]-methyl-amino] (2S)-2-[(3-hydroxy-4-methoxy-pyridine-2-carbonyl)amino] propanoate]
≥ 80%: inhibition at 200 ppm [6] | pest or weed control at 200 ppm [3] | inhibition at 200 ppm [1] | inhibition at 200 ppm [4] | pest or weed control at 200 ppm [7] | pest or weed control at 200 ppm [5]

COc1ccnc(C(=O)N[C@@H](C)C(=O)ON(C)C(c2ccccc2)C2CCCCC2)c1O (stereo partly drawn) [I.j.01, [[cyclohexyl(phenyl)methyl]-methyl-amino] (2S)-2-[(3-hydroxy-4-methoxy-pyridine-2-carbonyl)amino] propanoate]
≥ 80%: pest or weed control at 200 ppm [5]

COc1ccnc(C(=O)N[C@@H](C)C(=O)ON(C)C(C)(c2ccccc2)c2ccccc2)c1O [I.m.02, [1,1-diphenylethyl (methyl)amino] (2S)-2-[(3-hydroxy-4-methoxy-pyridine-2-carbonyl)amino] propanoate]
≥ 80%: pest or weed control at 200 ppm [3] | inhibition at 200 ppm [1] | inhibition at 200 ppm [4] | pest or weed control at 200 ppm [7] | pest or weed control at 200 ppm [5]

COc1ccnc(C(=O)N[C@@H](C)C(=O)ON(C)C(c2ccccc2)c2ccc(F)cc2)c1O (stereo partly drawn) [I.n.01, [[(4-fluorophenyl)-phenyl-methyl]-methyl-amino] (2S)-2-[(3-hydroxy-4-methoxy-pyridine-2-carbonyl)amino]propanoate]
≥ 80%: inhibition at 200 ppm [6] | pest or weed control at 200 ppm [3] | inhibition at 200 ppm [1] | inhibition at 200 ppm [4] | inhibition at 200 ppm [2] | pest or weed control at 200 ppm [7] | pest or weed control at 200 ppm [5]

COc1ccnc(C(=O)N[C@@H](C)C(=O)ON(C)C(c2ccccc2)c2ccc(Cl)cc2)c1O (stereo partly drawn) [I.o.01, [[(4-chlorophenyl)-phenyl-methyl]-methyl-amino] (2S)-2-[(3-hydroxy-4-methoxy-pyridine-2-carbonyl)amino]propanoate]
≥ 80%: inhibition at 200 ppm [6] | pest or weed control at 200 ppm [3] | inhibition at 200 ppm [1] | inhibition at 200 ppm [4] | pest or weed control at 200 ppm [5]

COc1ccnc(C(=O)N[C@@H](C)C(=O)ON(C)C(c2ccccc2)c2ccc3ccccc3c2)c1O (stereo partly drawn) [I.r.01, [methyl-[2-naphthyl(phenyl)methyl]amino] (2S)-2-[(3-hydroxy-4-methoxy-pyridine-2-carbonyl)amino] propanoate]
≥ 80%: pest or weed control at 200 ppm [5]

COc1ccnc(C(=O)N[C@@H](C)C(=O)ON(C)C(c2ccc(F)cc2)c2ccc(F)cc2)c1O [I.s.01, [bis(4-fluorophenyl)methyl-methyl-amino] (2S)-2-[(3-hydroxy-4-methoxy-pyridine-2-carbonyl)amino]propanoate]
≥ 80%: inhibition at 200 ppm [6] | pest or weed control at 200 ppm [3] | inhibition at 200 ppm [1] | inhibition at 200 ppm [4] | inhibition at 200 ppm [2] | pest or weed control at 200 ppm [7] | pest or weed control at 200 ppm [5]

COc1ccnc(C(=O)N[C@@H](C)C(=O)ON(C)C(c2ccc(F)cc2)c2ccc(F)cc2)c1OC(C)=O [I.s.13, [bis(4-fluorophenyl)methyl-methyl-amino] (2S)-2-[(3-acetoxy-4-methoxy-pyridine-2-carbonyl)amino]propanoate]
≥ 80%: pest or weed control at 200 ppm [3] | inhibition at 200 ppm [1] | inhibition at 200 ppm [4] | pest or weed control at 200 ppm [5]

COc1ccnc(C(=O)N[C@@H](C)C(=O)ON(C)C(C)(c2ccc(F)cc2)c2ccc(F)cc2)c1OC(C)=O [I.s.14, [1,1-bis(4-fluorophenyl)ethyl-methyl-amino] (2S)-2-[(3-acetoxy-4-methoxy-pyridine-2-carbonyl)amino] propanoate]
≥ 80%: inhibition at 200 ppm [1] | inhibition at 200 ppm [4] | pest or weed control at 200 ppm [7] | pest or weed control at 200 ppm [5]

COc1ccnc(C(=O)N[C@@H](C)C(=O)ON(C)C(C)(c2ccc(F)cc2)c2ccc(Cl)cc2)c1O (stereo partly drawn) [I.t.02, [[1-(4-chlorophenyl)-1-(4-fluorophenyl)ethyl]-methyl-amino] (2S)-2-[(3-hydroxy-4-methoxy-pyridine-2-carbonyl)amino]propanoate]
≥ 80%: inhibition at 200 ppm [6] | pest or weed control at 200 ppm [3] | inhibition at 200 ppm [1] | inhibition at 200 ppm [4] | inhibition at 200 ppm [2]

COc1ccnc(C(=O)N[C@@H](C)C(=O)ON(C)C(c2ccc(Cl)cc2)c2ccc(Cl)cc2)c1O [I.u.01, [bis(4-chlorophenyl)methyl-methyl-amino] (2S)-2-[(3-hydroxy-4-methoxy-pyridine-2-carbonyl)amino] propanoate]
≥ 80%: inhibition at 200 ppm [6] | pest or weed control at 200 ppm [3] | inhibition at 200 ppm [1] | inhibition at 200 ppm [4] | pest or weed control at 200 ppm [7] | pest or weed control at 200 ppm [5]

CCC(c1ccc(Cl)cc1)(c1ccc(Cl)cc1)N(C)OC(=O)[C@H](C)NC(=O)c1nccc(OC)c1O [I.u.03, [1,1-bis(4-chlorophenyl)propyl-methyl-amino] (2S)-2-[(3-hydroxy-4-methoxy-pyridine-2-carbonyl)amino]propanoate]
≥ 80%: inhibition at 200 ppm [1] | inhibition at 200 ppm [4] | inhibition at 200 ppm [2]

COc1ccnc(C(=O)N[C@@H](C)C(=O)ON(C)C(c2cc(C)cc(C)c2)c2cc(C)cc(C)c2)c1O [I.x.01, [bis(3,5-dimethylphenyl)methyl-methyl-amino] (2S)-2-[(3-hydroxy-4-methoxy-pyridine-2-carbonyl)amino]propanoate]
≥ 80%: inhibition at 200 ppm [6] | inhibition at 200 ppm [1] | inhibition at 200 ppm [2]
